# Columns and labels:
# Test in all cases: RBC kinase panel
# Type in all cases: biochemical
# Details in all cases: ATP 10 μM, Data1, Data2
# GRK6 = target: T1, GRK6 (Homo sapiens, UniProt P43250)
# T1 construct: purchased Reaction Biology Corporation
# Outline: (§1)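 ATP was held at 10 μM in all reactions while the compound, at 1 μM, was profiled against 369 human kinases; each measurement was run twice.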
# SGK3/SGKL = target: T2, SGK3/SGKL (Homo sapiens, UniProt Q96BR1)
# T2 construct: purchased Reaction Biology Corporation
# Outline: as §1
# SNRK = target: T3, SNRK (Homo sapiens, UniProt Q9NRH2)
# T3 construct: purchased Reaction Biology Corporation
# Outline: as §1
# PKN2/PRK2 = target: T4, PKN2/PRK2 (Homo sapiens, UniProt Q16513)
# T4 construct: purchased Reaction Biology Corporation
# Outline: as §1
# CTK/MATK = target: T5, CTK/MATK (Homo sapiens, UniProt P42679)
# T5 construct: purchased Reaction Biology Corporation
# Outline: as §1
# RAF1 = target: T6, RAF1 (Homo sapiens, UniProt P04049)
# T6 construct: purchased Reaction Biology Corporation
# Outline: as §1
# ERBB4/HER4 = target: T7, ERBB4/HER4 (Homo sapiens, UniProt Q15303)
# T7 construct: purchased Reaction Biology Corporation
# Outline: as §1
# CLK1 = target: T8, CLK1 (Homo sapiens, UniProt P49759)
# T8 construct: purchased Reaction Biology Corporation
# Outline: as §1
# CK1g2 = target: T9, CK1g2 (Homo sapiens, UniProt P78368)
# T9 construct: purchased Reaction Biology Corporation
# Outline: as §1
# MARK3 = target: T10, MARK3 (Homo sapiens, UniProt P27448)
# T10 construct: purchased Reaction Biology Corporation
# Outline: as §1
# ALK5/TGFBR1 = target: T11, ALK5/TGFBR1 (Homo sapiens, UniProt P36897)
# T11 construct: purchased Reaction Biology Corporation
# Outline: as §1
# ALK3/BMPR1A = target: T12, ALK3/BMPR1A (Homo sapiens, UniProt P36894)
# T12 construct: purchased Reaction Biology Corporation
# Outline: as §1
# MYO3b = target: T13, MYO3b (Homo sapiens, UniProt Q8WXR4)
# T13 construct: purchased Reaction Biology Corporation
# Outline: as §1
# PKCtheta = target: T14, PKCtheta (Homo sapiens, UniProt Q04759)
# T14 construct: purchased Reaction Biology Corporation
# Outline: as §1
# PYK2 = target: T15, PYK2 (Homo sapiens, UniProt Q14289)
# T15 construct: purchased Reaction Biology Corporation
# Outline: as §1
# SLK/STK2 = target: T16, SLK/STK2 (Homo sapiens, UniProt Q9H2G2)
# T16 construct: purchased Reaction Biology Corporation
# Outline: as §1
# GRK3 = target: T17, GRK3 (Homo sapiens, UniProt P35626)
# T17 construct: purchased Reaction Biology Corporation
# Outline: as §1
# PKG2/PRKG2 = target: T18, PKG2/PRKG2 (Homo sapiens, UniProt Q13237)
# T18 construct: purchased Reaction Biology Corporation
# Outline: as §1
# ARK5/NUAK1 = target: T19, ARK5/NUAK1 (Homo sapiens, UniProt O60285)
# T19 construct: purchased Reaction Biology Corporation
# Outline: as §1
# PIM2 = target: T20, PIM2 (Homo sapiens, UniProt Q9P1W9)
# T20 construct: purchased Reaction Biology Corporation
# Outline: as §1
# JAK3 = target: T21, JAK3 (Homo sapiens, UniProt P52333)
# T21 construct: purchased Reaction Biology Corporation
# Outline: as §1
# DMPK2 = target: T22, DMPK2 (Homo sapiens, UniProt Q6DT37)
# T22 construct: purchased Reaction Biology Corporation
# Outline: as §1
# ABL1 = target: T23, ABL1 (Homo sapiens, UniProt P00519)
# T23 construct: purchased Reaction Biology Corporation
# Outline: as §1
# LOK/STK10 = target: T24, LOK/STK10 (Homo sapiens, UniProt O94804)
# T24 construct: purchased Reaction Biology Corporation
# Outline: as §1
# SIK1 = target: T25, SIK1 (Homo sapiens, UniProt P57059)
# T25 construct: purchased Reaction Biology Corporation
# Outline: as §1
# ZIPK/DAPK3 = target: T26, ZIPK/DAPK3 (Homo sapiens, UniProt O43293)
# T26 construct: purchased Reaction Biology Corporation
# Outline: as §1
# HCK = target: T27, HCK (Homo sapiens, UniProt P08631)
# T27 construct: purchased Reaction Biology Corporation
# Outline: as §1
# CAMK4 = target: T28, CAMK4 (Homo sapiens, UniProt Q16566)
# T28 construct: purchased Reaction Biology Corporation
# Outline: as §1
# WNK2 = target: T29, WNK2 (Homo sapiens, UniProt Q9Y3S1)
# T29 construct: purchased Reaction Biology Corporation
# Outline: as §1
# FLT3 = target: T30, FLT3 (Homo sapiens, UniProt P36888)
# T30 construct: purchased Reaction Biology Corporation
# Outline: as §1
# MAPKAPK3 = target: T31, MAPKAPK3 (Homo sapiens, UniProt Q16644)
# T31 construct: purchased Reaction Biology Corporation
# Outline: as §1
# EPHA6 = target: T32, EPHA6 (Homo sapiens, UniProt Q9UF33)
# T32 construct: purchased Reaction Biology Corporation
# Outline: as §1
# c-MET = target: T33, c-MET (Homo sapiens, UniProt P08581)
# T33 construct: purchased Reaction Biology Corporation
# Outline: as §1
# T12 sequence (P36894 24-532): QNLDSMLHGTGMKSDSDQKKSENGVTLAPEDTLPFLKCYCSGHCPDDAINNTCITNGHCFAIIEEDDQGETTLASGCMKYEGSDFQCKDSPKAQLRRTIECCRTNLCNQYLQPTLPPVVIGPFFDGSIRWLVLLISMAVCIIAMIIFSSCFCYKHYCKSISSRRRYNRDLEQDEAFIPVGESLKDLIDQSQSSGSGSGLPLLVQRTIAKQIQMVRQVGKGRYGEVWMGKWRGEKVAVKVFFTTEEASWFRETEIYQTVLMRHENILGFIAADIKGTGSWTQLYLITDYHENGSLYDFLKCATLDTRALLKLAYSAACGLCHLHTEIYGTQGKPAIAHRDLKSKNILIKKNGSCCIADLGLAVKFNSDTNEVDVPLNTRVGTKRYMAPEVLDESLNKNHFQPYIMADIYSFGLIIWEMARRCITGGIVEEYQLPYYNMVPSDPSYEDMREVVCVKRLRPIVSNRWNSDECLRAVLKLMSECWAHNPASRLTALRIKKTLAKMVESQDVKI
# T2 sequence (Q96BR1 whole entry): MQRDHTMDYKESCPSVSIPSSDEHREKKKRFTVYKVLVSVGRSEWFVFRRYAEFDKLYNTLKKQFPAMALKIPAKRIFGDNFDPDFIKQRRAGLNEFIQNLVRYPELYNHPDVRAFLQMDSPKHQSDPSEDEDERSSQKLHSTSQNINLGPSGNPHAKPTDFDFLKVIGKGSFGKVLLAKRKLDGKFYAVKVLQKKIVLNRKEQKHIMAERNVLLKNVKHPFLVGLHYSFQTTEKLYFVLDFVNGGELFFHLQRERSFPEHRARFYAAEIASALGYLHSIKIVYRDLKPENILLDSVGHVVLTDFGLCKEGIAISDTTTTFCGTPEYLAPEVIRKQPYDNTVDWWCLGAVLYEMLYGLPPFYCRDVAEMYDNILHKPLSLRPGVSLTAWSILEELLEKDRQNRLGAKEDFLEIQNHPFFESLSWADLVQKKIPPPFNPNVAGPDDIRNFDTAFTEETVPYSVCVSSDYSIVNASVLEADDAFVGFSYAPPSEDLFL
# T32 sequence (Q9UF33 23-1036): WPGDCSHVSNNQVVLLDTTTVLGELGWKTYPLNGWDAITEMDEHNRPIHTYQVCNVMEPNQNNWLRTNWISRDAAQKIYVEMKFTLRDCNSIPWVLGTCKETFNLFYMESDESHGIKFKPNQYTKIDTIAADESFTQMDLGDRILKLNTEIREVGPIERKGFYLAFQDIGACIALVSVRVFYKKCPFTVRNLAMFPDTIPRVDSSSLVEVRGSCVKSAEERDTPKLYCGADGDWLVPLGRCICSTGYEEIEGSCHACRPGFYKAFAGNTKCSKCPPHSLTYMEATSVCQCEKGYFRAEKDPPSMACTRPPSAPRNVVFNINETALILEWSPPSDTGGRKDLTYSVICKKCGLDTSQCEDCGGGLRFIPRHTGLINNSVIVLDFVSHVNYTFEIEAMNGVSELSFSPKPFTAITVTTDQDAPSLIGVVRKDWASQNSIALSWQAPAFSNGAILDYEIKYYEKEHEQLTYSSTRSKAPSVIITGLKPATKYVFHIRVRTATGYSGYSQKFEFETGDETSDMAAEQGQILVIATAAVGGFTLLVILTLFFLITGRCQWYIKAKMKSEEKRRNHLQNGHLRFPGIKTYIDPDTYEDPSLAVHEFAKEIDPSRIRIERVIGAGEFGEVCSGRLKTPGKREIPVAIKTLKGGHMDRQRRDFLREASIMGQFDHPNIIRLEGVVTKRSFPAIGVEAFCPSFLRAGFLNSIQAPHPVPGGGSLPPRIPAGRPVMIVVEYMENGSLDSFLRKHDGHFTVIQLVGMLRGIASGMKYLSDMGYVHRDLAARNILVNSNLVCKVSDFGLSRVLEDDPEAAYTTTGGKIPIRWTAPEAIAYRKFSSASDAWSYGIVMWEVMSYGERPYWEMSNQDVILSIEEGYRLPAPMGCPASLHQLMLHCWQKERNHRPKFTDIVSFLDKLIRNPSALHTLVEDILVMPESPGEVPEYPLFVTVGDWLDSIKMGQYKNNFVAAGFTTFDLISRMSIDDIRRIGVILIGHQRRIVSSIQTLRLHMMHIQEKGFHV
# T5 sequence (P42679 whole entry): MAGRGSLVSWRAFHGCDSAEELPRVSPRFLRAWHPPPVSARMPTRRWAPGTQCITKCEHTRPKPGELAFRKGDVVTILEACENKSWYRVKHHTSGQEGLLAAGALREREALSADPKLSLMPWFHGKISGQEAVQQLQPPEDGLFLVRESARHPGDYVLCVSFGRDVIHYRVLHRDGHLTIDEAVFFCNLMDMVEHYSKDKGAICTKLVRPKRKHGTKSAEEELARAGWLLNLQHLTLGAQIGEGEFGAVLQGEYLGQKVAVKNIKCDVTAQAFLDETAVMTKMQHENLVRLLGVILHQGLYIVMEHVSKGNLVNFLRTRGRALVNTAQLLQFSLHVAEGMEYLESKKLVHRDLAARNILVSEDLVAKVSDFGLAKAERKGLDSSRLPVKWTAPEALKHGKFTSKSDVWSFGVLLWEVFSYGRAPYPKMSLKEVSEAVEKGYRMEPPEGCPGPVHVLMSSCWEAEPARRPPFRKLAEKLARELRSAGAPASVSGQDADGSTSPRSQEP
# T23 sequence (P00519 whole entry): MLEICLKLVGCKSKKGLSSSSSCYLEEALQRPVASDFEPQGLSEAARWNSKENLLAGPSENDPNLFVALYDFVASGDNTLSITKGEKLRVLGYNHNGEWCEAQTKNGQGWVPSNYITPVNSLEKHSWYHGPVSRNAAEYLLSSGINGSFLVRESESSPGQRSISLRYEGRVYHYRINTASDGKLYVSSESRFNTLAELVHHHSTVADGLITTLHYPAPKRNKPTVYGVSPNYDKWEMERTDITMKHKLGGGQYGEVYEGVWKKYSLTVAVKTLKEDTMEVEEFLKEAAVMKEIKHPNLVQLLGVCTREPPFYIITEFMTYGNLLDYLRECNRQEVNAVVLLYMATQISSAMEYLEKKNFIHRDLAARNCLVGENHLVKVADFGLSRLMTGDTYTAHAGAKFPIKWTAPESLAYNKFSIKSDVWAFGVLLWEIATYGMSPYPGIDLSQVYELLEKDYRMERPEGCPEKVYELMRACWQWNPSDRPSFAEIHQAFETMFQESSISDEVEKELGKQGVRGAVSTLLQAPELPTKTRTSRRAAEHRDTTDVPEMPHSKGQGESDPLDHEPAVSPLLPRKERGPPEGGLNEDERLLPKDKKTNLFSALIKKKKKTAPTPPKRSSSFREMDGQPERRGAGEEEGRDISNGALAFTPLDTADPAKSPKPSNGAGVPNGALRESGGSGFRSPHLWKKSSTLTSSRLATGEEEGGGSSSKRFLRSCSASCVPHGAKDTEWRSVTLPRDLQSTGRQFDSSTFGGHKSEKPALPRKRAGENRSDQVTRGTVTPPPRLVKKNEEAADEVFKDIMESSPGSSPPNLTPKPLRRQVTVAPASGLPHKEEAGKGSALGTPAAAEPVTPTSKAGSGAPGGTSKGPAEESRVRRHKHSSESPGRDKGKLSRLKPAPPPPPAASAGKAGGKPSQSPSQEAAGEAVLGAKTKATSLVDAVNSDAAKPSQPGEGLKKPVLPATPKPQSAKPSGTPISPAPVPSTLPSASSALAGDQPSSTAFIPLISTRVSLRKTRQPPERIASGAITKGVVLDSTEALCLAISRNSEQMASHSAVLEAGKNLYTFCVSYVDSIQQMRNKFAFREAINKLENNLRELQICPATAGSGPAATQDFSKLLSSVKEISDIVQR
# T10 sequence (P27448 whole entry): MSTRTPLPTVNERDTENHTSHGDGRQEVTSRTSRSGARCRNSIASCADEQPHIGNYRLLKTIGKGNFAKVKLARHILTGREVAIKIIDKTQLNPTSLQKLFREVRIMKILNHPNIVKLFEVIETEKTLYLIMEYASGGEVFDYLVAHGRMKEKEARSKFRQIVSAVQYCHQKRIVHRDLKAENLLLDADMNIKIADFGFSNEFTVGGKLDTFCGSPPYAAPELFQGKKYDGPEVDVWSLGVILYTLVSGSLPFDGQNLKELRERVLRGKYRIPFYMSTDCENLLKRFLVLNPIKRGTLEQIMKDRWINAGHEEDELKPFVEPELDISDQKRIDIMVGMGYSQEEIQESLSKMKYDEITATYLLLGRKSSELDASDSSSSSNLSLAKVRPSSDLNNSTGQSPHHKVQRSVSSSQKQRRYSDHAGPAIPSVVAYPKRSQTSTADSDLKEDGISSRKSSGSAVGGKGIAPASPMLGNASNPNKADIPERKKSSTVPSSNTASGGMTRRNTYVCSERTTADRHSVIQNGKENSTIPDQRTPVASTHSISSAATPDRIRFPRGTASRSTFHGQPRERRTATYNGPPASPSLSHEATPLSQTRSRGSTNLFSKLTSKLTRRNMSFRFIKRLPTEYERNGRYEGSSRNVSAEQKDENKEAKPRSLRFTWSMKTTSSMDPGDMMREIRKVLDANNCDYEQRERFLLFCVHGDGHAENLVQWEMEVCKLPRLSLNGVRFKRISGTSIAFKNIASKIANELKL
# T9 sequence (P78368 whole entry): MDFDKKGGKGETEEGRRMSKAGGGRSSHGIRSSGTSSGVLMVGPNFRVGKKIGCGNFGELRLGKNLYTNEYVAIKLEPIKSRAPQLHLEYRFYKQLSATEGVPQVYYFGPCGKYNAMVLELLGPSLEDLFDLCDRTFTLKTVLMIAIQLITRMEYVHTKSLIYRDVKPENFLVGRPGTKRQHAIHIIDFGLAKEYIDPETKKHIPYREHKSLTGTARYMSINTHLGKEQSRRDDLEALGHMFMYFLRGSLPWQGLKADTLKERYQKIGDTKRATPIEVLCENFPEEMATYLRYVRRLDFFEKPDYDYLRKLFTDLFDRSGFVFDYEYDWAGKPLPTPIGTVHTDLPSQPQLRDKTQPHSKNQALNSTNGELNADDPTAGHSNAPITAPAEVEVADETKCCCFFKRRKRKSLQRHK
structure (smiles),measurement,setting,value
"CC(=O)Nc1nc2ccc(-c3cnc(C)c(NC(=O)OC4CCCCC4)c3)cc2s1 [PK68, cyclohexyl (5-(2-acetamidobenzo[d]thiazol-6-yl)-2-methylpyridin-3-yl)carbamate]",Activity%,GRK6; 1 μM,99.89%
same,activity at 1 µM,GRK6,102%
same,Activity%,SGK3/SGKL; 1 μM,99.59%
same,activity at 1 µM,SGK3/SGKL,102%
same,Activity%,SNRK; 1 μM,90.23%
same,activity at 1 µM,SNRK,94.9%
same,Activity%,PKN2/PRK2; 1 μM,62.44%
same,activity at 1 µM,PKN2/PRK2,62.6%
same,Activity%,CTK/MATK; 1 μM,93.51%
same,activity at 1 µM,CTK/MATK,93.8%
same,Activity%,RAF1; 1 μM,75.37%
same,activity at 1 µM,RAF1,76.1%
same,Activity%,ERBB4/HER4; 1 μM,99.02%
same,activity at 1 µM,ERBB4/HER4,99.7%
same,Activity%,CLK1; 1 μM,80.72%
same,activity at 1 µM,CLK1,81.9%
same,Activity%,CK1g2; 1 μM,96.19%
same,activity at 1 µM,CK1g2,97.8%
same,Activity%,MARK3; 1 μM,103.78%
same,activity at 1 µM,MARK3,104%
same,Activity%,ALK5/TGFBR1; 1 μM,94.67%
same,activity at 1 µM,ALK5/TGFBR1,95.1%
same,Activity%,ALK3/BMPR1A; 1 μM,103.05%
same,activity at 1 µM,ALK3/BMPR1A,105%
same,Activity%,MYO3b; 1 μM,99.36%
same,activity at 1 µM,MYO3b,99.9%
same,Activity%,PKCtheta; 1 μM,97.50%
same,activity at 1 µM,PKCtheta,101%
same,Activity%,PYK2; 1 μM,95.64%
same,activity at 1 µM,PYK2,95.9%
same,Activity%,SLK/STK2; 1 μM,91.29%
same,activity at 1 µM,SLK/STK2,91.9%
same,Activity%,GRK3; 1 μM,102.09%
same,activity at 1 µM,GRK3,103%
same,Activity%,PKG2/PRKG2; 1 μM,106.03%
same,activity at 1 µM,PKG2/PRKG2,108%
same,Activity%,ARK5/NUAK1; 1 μM,98.37%
same,activity at 1 µM,ARK5/NUAK1,99.4%
same,Activity%,PIM2; 1 μM,111.50%
same,activity at 1 µM,PIM2,114%
same,Activity%,JAK3; 1 μM,92.17%
same,activity at 1 µM,JAK3,92.9%
same,Activity%,DMPK2; 1 μM,96.42%
same,activity at 1 µM,DMPK2,98.3%
same,Activity%,ABL1; 1 μM,74.18%
same,activity at 1 µM,ABL1,74.3%
same,Activity%,LOK/STK10; 1 μM,97.50%
same,activity at 1 µM,LOK/STK10,97.9%
same,Activity%,SIK1; 1 μM,97.74%
same,activity at 1 µM,SIK1,98.4%
same,Activity%,ZIPK/DAPK3; 1 μM,98.55%
same,activity at 1 µM,ZIPK/DAPK3,100%
same,Activity%,HCK; 1 μM,100.14%
same,activity at 1 µM,HCK,102%
same,Activity%,CAMK4; 1 μM,84.49%
same,activity at 1 µM,CAMK4,84.8%
same,Activity%,WNK2; 1 μM,94.21%
same,activity at 1 µM,WNK2,94.6%
same,Activity%,FLT3; 1 μM,57.70%
same,activity at 1 µM,FLT3,58%
same,Activity%,MAPKAPK3; 1 μM,100.67%
same,activity at 1 µM,MAPKAPK3,102%
same,Activity%,EPHA6; 1 μM,97.58%
same,activity at 1 µM,EPHA6,98.1%
same,Activity%,c-MET; 1 μM,101.99%
same,activity at 1 µM,c-MET,102%
